Measured values taken from paper PMC11412900 (Molecular Psychiatry, 2024).
Like-named read-outs stand apart in the source and are kept apart here.

Assays:
h5-HT1AR = target: T1, h5-HT1AR (Homo sapiens, UniProt P08908); assay: Radioligand binding, [3H]8-OH-DPAT displacement
T1 construct: purchased Perkin Elmer, Inc. (Waltham, MA, USA)
T1 sequence (P08908 1-422): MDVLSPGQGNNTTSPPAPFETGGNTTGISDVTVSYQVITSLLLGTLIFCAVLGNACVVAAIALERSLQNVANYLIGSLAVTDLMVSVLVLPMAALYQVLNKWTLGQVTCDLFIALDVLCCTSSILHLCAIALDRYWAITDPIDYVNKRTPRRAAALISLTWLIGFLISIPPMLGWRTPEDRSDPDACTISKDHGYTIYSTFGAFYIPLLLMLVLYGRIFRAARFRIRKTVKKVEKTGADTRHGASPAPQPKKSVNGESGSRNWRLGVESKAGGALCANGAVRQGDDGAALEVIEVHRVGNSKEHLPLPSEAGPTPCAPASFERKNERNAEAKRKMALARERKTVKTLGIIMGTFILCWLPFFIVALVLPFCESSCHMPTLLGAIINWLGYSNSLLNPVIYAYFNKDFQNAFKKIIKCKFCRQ
Description: (§1) Binding assays were performed as described previously. Briefly, membrane preparations expressing h5-HT1AR, h5-HT2AR or hSERT (see Supplementary Material) were incubated with radiolabeled selective ligands 0.4 nM [^3H]8-OH-DPAT, 1 nM [^3H]ketanserin or 3 nM [^3H]imipramine, respectively. The drugs were diluted in the corresponding binding buffer and tested at increasing concentrations in duplicate. Binding reactions were performed in tubes containing the drug dilutions; 25 μl of the corresponding radioligand; and the membranes (10 μg and 5 μg/500 μL for 5-HT1AR and 5-HT2AR, respectively, and 15 μg/100 μL for hSERT), all diluted in binding buffer. […] Incubation was performed for 1 h at 27 °C for 5-HT1A/2AR and 22 °C for hSERT, according to the manufacturer’s protocol (Perkin Elmer, Inc., Waltham, MA, USA) and previous studies - saturation and kinetic experiments, respectively. The binding reactions were stopped by rapid filtration through GF/B glass microfiber filters pre-soaked with 0.5% polyethyleneimine and washing with ice-cold wash buffer. The filters were placed into vials and scintillation cocktail was added. The trapped radioactivity was quantified. Specific binding was defined as the difference between total binding (binding buffer alone) and non-specific binding. Experiments were conducted per duplicate for at least three independent experiments.

h5-HT2AR = target: T2, h5-HT2AR (Homo sapiens, UniProt P28223); format: binding; settings: 1 nM [3H]ketanserin, N ≥ 3; read-out: 5-HT2AR Ki ± SD
T2 construct: purchased Perkin Elmer, Inc. (Waltham, MA, USA)
T2 sequence (P28223 whole entry): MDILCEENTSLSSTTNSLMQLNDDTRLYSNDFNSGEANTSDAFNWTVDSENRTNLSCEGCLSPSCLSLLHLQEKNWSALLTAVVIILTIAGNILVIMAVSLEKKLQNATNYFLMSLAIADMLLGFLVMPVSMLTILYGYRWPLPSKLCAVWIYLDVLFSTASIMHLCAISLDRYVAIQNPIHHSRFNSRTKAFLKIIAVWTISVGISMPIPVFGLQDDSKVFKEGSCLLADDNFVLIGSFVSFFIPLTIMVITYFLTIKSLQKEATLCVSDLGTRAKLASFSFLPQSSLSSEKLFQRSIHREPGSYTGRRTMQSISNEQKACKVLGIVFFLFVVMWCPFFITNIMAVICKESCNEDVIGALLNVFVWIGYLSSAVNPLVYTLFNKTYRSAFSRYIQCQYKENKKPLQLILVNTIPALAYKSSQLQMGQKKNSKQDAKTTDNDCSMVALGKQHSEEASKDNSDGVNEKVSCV
Description: as §1

SERT [1] = target: T3, SERT (Homo sapiens, UniProt P31645); assay: Radioligand binding, [3H]imipramine displacement
T3 construct: YFP (yellow-fluorescent protein); expressed in transfected cells
T3 sequence (P31645 whole entry): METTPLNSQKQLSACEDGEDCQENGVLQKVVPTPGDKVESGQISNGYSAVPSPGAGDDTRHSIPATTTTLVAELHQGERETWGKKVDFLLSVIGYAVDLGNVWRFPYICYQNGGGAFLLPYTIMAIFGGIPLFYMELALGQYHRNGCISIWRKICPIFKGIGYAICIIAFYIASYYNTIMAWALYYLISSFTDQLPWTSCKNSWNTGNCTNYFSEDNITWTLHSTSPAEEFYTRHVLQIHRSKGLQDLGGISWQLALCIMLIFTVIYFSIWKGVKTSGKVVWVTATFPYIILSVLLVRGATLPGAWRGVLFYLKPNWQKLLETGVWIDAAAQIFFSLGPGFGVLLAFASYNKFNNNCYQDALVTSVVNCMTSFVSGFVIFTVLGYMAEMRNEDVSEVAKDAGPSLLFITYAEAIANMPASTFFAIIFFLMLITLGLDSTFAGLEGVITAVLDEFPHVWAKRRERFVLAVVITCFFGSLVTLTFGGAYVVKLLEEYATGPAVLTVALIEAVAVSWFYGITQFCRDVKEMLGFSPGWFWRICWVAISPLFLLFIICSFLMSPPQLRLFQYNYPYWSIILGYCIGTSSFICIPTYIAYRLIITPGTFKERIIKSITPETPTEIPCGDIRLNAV
Description: as §1
The generation and maintenance of HEK293 cells stably expressing the yellow-fluorescent protein (YFP)-tagged version of the human isoform of SERT (hSERT) (Perkin Elmer, Waltham, MA, USA) was carried out as described previously. For uptake inhibition and batch release assays, cells were seeded onto previously poly-D-lysine (PDL)-coated 96-well plates at a density of 0.036 million cells per well [5]. For superfusion release assays, cells were seeded onto a previously coated with PDL 6 channel µ-slide at a density of 0.08 million cells per channel. Prior to patching, cells were grown in DMEM containing 10% FBS, Zeocin (150 µg/mL) and Blasticidin (6 µg/mL) for positive selection of transporter-expressing clones. The cells were seeded at a low density on PDL-coated 35 mm plates 24-48 hr prior to patching. For membrane preparation, HEK293 cells expressing hSERT transporters were harvested from 80–90% confluent dishes as described elsewhere. Protein concentration was determined using the Bio-RadProtein Reagent (Bio Rad Laboratories, Hercules, CA, USA). Membrane preparations were stored at −80°C until use. Generation and maintenance of CHO-K1 cells expressing the human isoform of 5-HT2AR (h5-HT2AR) was carried out as described in the manufacturer’s protocol (Perkin Elmer, Waltham, MA, USA). Routine DAPI-Staining assays tested negative in mycoplasma contamination.

[2] = tested on: core body temperature in mice; assay: Core body temperature measurement; format: in vivo; settings: mice, i.p., 60 min after injection
Description: Rectal temperature of mice (N = 8–10 per group) was measured 60 min after i.p. injection of the corresponding compound (see previous section “Head twitch response”). This time point was chosen according to the maximal effect observed in pilot experiments. A thermocouple probe (YS451, Panlab, Barcelona, Spain) connected to a digital thermometer (TMP812RS, Panlab, Barcelona, Spain) was inserted 2 cm into the rectum and steady temperature readout was obtained after 10 s of insertion.
Data were expressed as means±standard deviation (SD). Competition, release and functional assays, and substrate-induced current curves were plotted and fitted by non-linear regression to obtain the IC50, EC50, and Emax values. For behavioral studies, data were fitted by non-linear regression and pED50 and Emax values (with the corresponding 95% CI) were estimated by means of a software (GraphPad Prism 10) that further extrapolates the data. The Cheng-Prusoff equation was used to calculate Ki (affinity): Ki = […]/(1 + [radioligand-concentration/Kd]). HTR curves were fitted using a Gaussian equation as described. Data from batch release assays were statistically analyzed with a mixed-effects model, employing Šidák’s correction for multiple comparisons. Total release at each concentration and the behavioral experiments with the corresponding antagonists were statistically analyzed using one-way ANOVA, followed by Tukey’s post-hoc test. Molecular volume (van der Waals) was calculated using a grid approximation (spacing 0.75 Å). logP was calculated using Molinspiration Cheminformatics software. For in vivo studies, one-way ANOVA with Dunnet’s post-hoc test was used to compare all conditions to saline in dose-response experiments when data were normally distributed. Otherwise, a non-parametric test (Kruskall-Wallis with Dunn’s post-hoc test) was used. Alpha was set at 0.05. Outliers were excluded following ROUT’s method (Q = 0.1%). All statistical analyses and Pearson correlations were conducted using GraphPad Prism 10 software (GraphPad software, San Diego, CA, USA).

SERT [3] = target: T3, SERT; assay: Batch release of preloaded [3H]5-HT from HEK293 cells expressing SERT; format: cell-based; settings: for 5-HT releasing activity: with or without monensin, pCA as positive control; for 5-HT release at SERT: with or without monensin 10 µM
Description: Batch release is a functional radiometric assay to assess transporter-mediated efflux. […] Subsequently, cells were washed three times with KHB and equilibrated for 10 min in KHB or KHB+monensin (10 µM). […] 10 µM pCA and 0.05 µM paroxetine were used as positive and negative controls, respectively. Liquid scintillation cocktail was added both to the wells containing cells (200 µL) and to the transferred supernatant (100 µL). Total radioactivity determined from/in the remaining lysate of the cells plus the transferred supernatant was set as 100%, and the radioactivity determined in each fraction was expressed as a percentage thereof. Assays were performed per duplicate for five independent experiments.

[4] = 0.4 nM [3H]8-OH-DPAT, N ≥ 3, read-out: 5-HT1AR Ki ± SD
[5] = 3 nM [3H]imipramine, N ≥ 3, read-out: SERT Ki ± SD

Row | Compound | Ki (h5-HT1AR; [4]) | Ki (h5-HT2AR) | Ki (SERT [1]; [5]) | Change in body temperature ED50 [2] | 5-HT releasing activity (SERT [3]) | Ki (h5-HT1AR) | Ki (SERT [1]) | ED50 ([2]; Mus musculus, ip, 1 h, read-out: Change in body temperature ED50) | 5-HT release at SERT (SERT [3])
1 | C=CCN(CC=C)CCc1c[nH]c2ccc(OC)cc12 [5-MeO-DALT] | 3.26 ± 0.39 nM | 71.7 ± 14.8 nM | 1190 ± 96 nM | 13.6 mg/kg | slight to none 5-HT releasing activity |  |  |  | 
2 | CCN(CC)CCc1c[nH]c2ccc(OC)cc12 [5-MeO-DET] | 4.93 ± 0.62 nM | 128 ± 4 nM | 10400 nM | 7.18 mg/kg | capable of evoking 5-HT release |  |  |  | 
3 | COc1ccc2[nH]cc(CCN(C(C)C)C(C)C)c2c1 [5-MeO-DIPT, 5-methoxy-N,N-diisopropyltryptamine] |  |  |  |  | slight to none 5-HT releasing activity | 15.8 ± 1.3 nM | 1620 ± 475 nM | 14.8 mg/kg | 
4 | CCN(CCc1c[nH]c2ccc(OC)cc12)C(C)C [5-MeO-EIPT] | 18.4 ± 8.4 nM | 151 ± 26 nM | 1780 ± 83 nM | 15.0 mg/kg |  |  |  |  | < 10 % total cpm
5 | CCN(C)CCc1c[nH]c2ccc(OC)cc12 [5-MeO-MET] | 3.11 ± 0.51 nM | 94.1 ± 16.7 nM | 7710 ± 3380 nM | 4.76 mg/kg | capable of evoking 5-HT release |  |  |  | 
6 | COc1ccc2[nH]cc(CCN(C)C(C)C)c2c1 [5-MeO-MIPT] | 24.8 ± 7.6 nM | 147 ± 32 nM | 2870 ± 928 nM | 14.8 mg/kg | slight to none 5-HT releasing activity |  |  |  | < 10 % total cpm
7 | COc1ccc2[nH]cc(CCN3CCCC3)c2c1 [5-MeO-pyr-T] | 0.577 ± 0.195 nM | 373 ± 59 nM | 3010 ± 354 nM | 2.89 mg/kg | capable of evoking 5-HT release |  |  |  | 
